Like-named read-outs stand apart in the source and are kept apart here.
What was measured:
[1] = bound to proteins on skin, mucosa, mouth tissue and teeth; cited from earlier work
[2] = system: gram-positive and gram-negative bacteria; details: in vitro; cited from earlier work
[3] = water, cited from earlier work
[4] = system: gram-positive and gram-negative bacteria; details: typical; cited from earlier work
Solubility in water = format: physicochemical; details: inventors' finding for CXC
Excerpt: Although the biological properties of CX are valuable its engineering properties are somewhat challenging. […] However CX is crystalline, and becomes impermeable when formed into a filter. The impermeability renders the filter properties moot. And even if the filter properties remained intact, the presence of CX in effluent would raise the standard for registration with the EPA and for management of the effluent.
In an effort to resolve that problem, U.S. Pat. No. 7,427,409 discloses use of a hydrate, i.e., CX having 1.3 water molecules per chlorhexidine molecules, and the composition is an amorphous material from which a permeable filter can be manufactured. […] The present invention contemplates use of CXH for any value of n for waters of hydration. However the inventors have discovered an unexpected disadvantage of CXH, namely that a small amount of CXH is eroded from the amorphous solid when fluid passes over or through it and thus exits with the effluent. Any water purifier that allows such emissions must be registered with the EPA as a pesticide, as opposed to a purifier, moreover the maker and/or marketer of the filter would be responsible for the ultimate fate and effects of the CXH after it leaves the filter. Moreover CXH decomposes when heated, and the water of hydration evaporates at 96° C. […]

Compound: [H]/N=C(\N/C(=N/[H])NCCCCCCNC(=N)NC(=N)Nc1ccc(Cl)cc1)Nc1ccc(Cl)cc1 [CX, N,N″″1,6-Hexanediylbis[N′-(4-chlorophenyl)(imidodicarbonimidic diamide)]]
- persistence of activity [1]: ≥ 48 h
- time to kill virtually all gram-positive and gram-negative bacteria [2]: ≤ 30 s
- solubility [3]: practically insoluble
- time of uptake of CX into the cells [4]: ≤ 20 s

Compound: [H]/N=C(\N/C(=N/[H])NCCCCCCNC(=N)NC(=N)Nc1ccc(Cl)cc1)Nc1ccc(Cl)cc1 [CXH, chlorhexidine hydrate]
- solubility ([3]; hydrate): essentially insoluble

Compound: chlorhexidine citrate [CXC]
- solubility (Solubility in water): low solubility

Source: US9403702B1, “Commodity water purifier” (A BETTER LIFE WORLDWIDE, LLC, priority 2015, dated 2016)
